From US7109329B2, “Neurologically active compounds and compounds with multiple activities” (priority 1988, dated 2006)

assay: Activities and properties of the compounds (Table III codes listed as Specific Properties in Table IV); conditions: not given
Excerpt: Certain of the compounds produce a profound hypothermia, but without anesthetizing. […] Table III, following, sets forth a list of the other properties of these guanidino compounds, which arise from their alpha-adrenergic agonist activity, combined with any inherent activity of the reactants chosen to achieve the final compound.
Except for items numbered 22 and 24–28 in Table III, substantially all of the guanidino compounds of this invention, as a result of their structure-activity relationship, are potent with respect to all of the above activities. However, as would be expected, various compounds have different, higher levels of, activities and properties which are listed as “Specific Properties”, with the Compounds numbered, in Table IV, below, according to the numbers in Tables I and II.

Row | Compound | Specific Properties
1 | 1,2-Bis(theophylline-7-acetamido)-ethane [Compound 164] | 3, 15, anesthesia antagonist
2 | 3-(Guanidinoacetoxy)-estrone [Compound 148] | 27
3 | 3-(PGE2carbonyl)-3-estrone ester [Compound 156] | 27 (some agonist activity)

same assay, conditions: codes of Table III; […]

Row | Compound | Specific Properties
4 | 7-(3,5-Dichorophenylhydrazido)-7-acetyltheophylline [Compound 102] | 3, 14, 16, 17 antagonist
5 | 17-(PGE1carbonyl)-17-cyproterone ester [Compound 154] | 26 (Androgenic antagonist)
6 | C[N+](C)(C)CCOC(=O)CNC(=N)N [Compound 32] | 1, 15, cholinergic
7 | COc1cc(CC(=O)Oc2ccc3[nH]cc(CCN)c3c2)cc(OC)c1OC [Compound 74, 5-(3,4,5-Trimethoxyphenylacetoxy)-tryptamine] | 5
8 | 4-(PGE2carbonylphenyl)-4-4′(1,2-diethyl-1,2-ethenediyl)-4-phenol [Compound 157] | 27 (some agonist activity)
9 | N-(PGE1carboxamido)-guanidine [Compound 151] | 6–11 (anti-impotence)
10 | N-(PGE1carboxamido)-1-aminophthalazine [Compound 152] | 6–11 (anti-impotence)
11 | N-[(6-PGE1carbonyl)-2,5,7,8-tetramethylchroman-2-carboxamido]-1-aminophthlazine [Compound 153] | 6–11 (anti-impotence)
12 | 4-4′-(1,2-Diethyl-1,2-ethenediyl)-4-guanidinoacetoxyphenyl-4′-(6-hydroxy-2,5,7,8-tetramethylchroman-2-carbonyl)-phenol ester [Compound 143] | 27 (Estrogenic antagonist (breast cancer treatment))
13 | 5-Methoxy-2-methyl-3-indoleacetamidoguanidine [Compound 103] | 5
14 | 2-(2,6-Diisopropylanilino)-2-methyleneimidazole [Compound 101] | adrenergic antagonist
15 | CC(=O)[C@@]1(OC(=O)CNC(=N)N)CCC2C3C=C(Cl)C4=CC(=O)C5C[C@@H]5C4(C)C3CCC21C (stereo partly drawn) [Compound 129, 6-Chloro-1,2,Dihydro-17-guanidinoacetoxy-3′H-cyclopropa[1,2]pregna-1,4,6-triene-3,20-dione] | 26 (Androgenic antagonist)
16 | N-(2,6-Dichlorbenzylidene)-3-(5-hydroxyindole)ethylamine [Compound 78] | 5

same assay, conditions: codes of Table III; higher levels of activity

Row | Compound | Specific Properties
17 | CC(=O)[C@@]1(OC(=O)CNC(=N)N)CCC2C3CC(C)C4=CC(=O)CCC4(C)C3CCC21C (stereo partly drawn) [Compound 185, 17-(Guanidinoacetoxy)-medroxyprogesterone] | 27, Progestin, androgenic
18 | CC(=O)[C@@]1(OC(=O)CNC(=N)N)CCC2C3C=C(C)C4=CC(=O)CCC4(C)C3CCC21C (stereo partly drawn) [Compound 184, 17-(Guanidinoacetoxy)-megostrol] | 27, Progestin, androgenic
19 | Guanidinamidocarbonyl-1-cholinepentanoic acid ester [Compound 167] | Adrenergic, cholinergic, 22, 23
20 | CC(=O)[C@@]1(OC(=O)CNC(=N)N)CCC2C3CCC4=CC(=O)CCC4(C)C3CCC21C (stereo partly drawn) [Compound 186, 17-(Guanidinoacetoxy)-progesterone] | 1927, Progestin, androgenic
21 | Cc1c(C)c2c(c(C)c1O)CCC(C)(C(=O)Nc1ccc(C(=O)NNC(=N)N)cc1)O2 (stereo not drawn) [Compound 135, 4-N-(G-Hydroxy-2,5,7,8-tetramethylchroman-2-carboxamido)-4-benzamidoguanidine] | 9–15
22 | Cl.Cn1c(=O)c2c(ncn2CC(=O)Nc2nc(N)nc(NC(=O)C[N+](C)(C)C)n2)n(C)c1=O [Compound 31, 2-(Amino)-4-(1-carboxamido-N,N,N-trimethylmethaniminium)-6-(theophylline-7-acetamido)-1,3,5-s-triazine] | 2, 3, 15, cholinergic
23 | CC/C(=C(\c1ccccc1)c1ccc(OC(=O)CNC(=N)N)cc1)c1ccccc1 [Compound 187, [Z]-2-[4-(1,2-Diphenyl-1-butenyl)-phenoxy]-guanidineacetate ester] | 27, Progestin
24 | Bis(3,17-guanidinoacetoxy)estradiaole [Compound 147] | 27 (Estrogenic antagonist (breast cancer treatment))
25 | Cn1c(=O)c2c(ncn2CC(=O)NC(=O)c2ccc(C(=N)N)cc2)n(C)c1=O [Compound 97, 4-(Amidino)-N-(theophylline-7-acetyl)-benzamide] | 3, 2, 2, antagonist, 12
26 | N=C(N)c1ccc(C(=O)NC(c2ccccc2)c2ccccc2)cc1 [Compound 223, N-(Diphenylmethyl)-4-(amidino)-Benzamide] | 1, 2, 4, 6, 9, 10, 14, 15, 17, 23, 29 Adrenergic
27 | N=C(N)c1ccc(C(=O)NC(=O)CCCCC2SCC3NC(=O)NC32)cc1 (stereo not drawn) [Compound 233, N-(Hexahydro-2-oxo-1H-thieno[3,4-d]-imidazole-4-pentanoyl)-4-amidinobenzamide] | 1, 2, 4, 6, 9, 10, 14, 15, 17, 23, 29 Antialopecia,
28 | CC/C(=C(/CC)c1ccc(OC(=O)CNC(=N)N)cc1)c1ccc(OC(=O)CNC(=N)N)cc1 [Compound 127, 4,4′-(1,2-Diethyl-1,2-ethenediyl)bis-phenoldiguanidinoacetate ester] | 27 (Estrogenic antagonist (breast cancer treatment))
29 | CC/C(=C(/CC)c1ccc(OC(=O)C2(C)CCc3c(C)c(OC(=O)CNC(=N)N)c(C)c(C)c3O2)cc1)c1ccc(O)cc1 (stereo not drawn) [Compound 128, 2-[4,4′-(1,2-Diethyl-1,2-ethenediyl)phenol]-6-(guanidinoacetoxy)-2,5,7,8-tetramethylchroman-2-carbonyl-2-phenol ester] | 27 (Estrogenic antagonist (breast cancer treatment))
30 | COc1cc(N=Cc2ncc[nH]2)cc(OC)c1OC [Compound 98] | adrenergic antagonist
31 | CCCCCC(O)/C=C/C1C(O)CC(=O)[C@@H]1CCCCCCCC(=O)OCC(O)COC(=O)CCCCCCC[C@H]1C(=O)CC(O)C1/C=C/C(O)CCCCC (stereo partly drawn) [Compound 170, 1,3-Di-PGE1-2-propanol-ester] | 8, 9, 12, Vasodilator
32 | COc1cc(CNC(=O)CNC(=N)N)ccc1O [Compound 104, N-(4-Hydroxy-3-methoxybenzyl)-guanidinoacetamide] | 2 (Antispasticity and muscle relaxant)
33 | Cn1c(=O)c2c(ncn2CC(=O)NCc2nc3ccccc3[nH]2)n(C)c1=O [Compound 96, 2-(Theophylline-7-acetamido)-2-methylbenzimidazole] | 3, adrenergic antagonist, 12
34 | 2-(3,4,5-Trimethoxybenzylidineamino)-2-methylbenzimidazole [Compound 100] | adrenergic antagonist
35 | [H]/N=C(\N/C(=N/[H])Nc1ccc(Cl)cc1)NC(C)C [Compound 217, reference compound] | 1, 4, 6–9, 16, 17, 19 antimalarial
36 | CC1(N=Cc2c(Cl)cccc2Cl)N=c2ccccc2=N1 [Compound 162, 2-(2,6-Dichlorobenzylideneamino)-2-methyl-benzimidazole] | 14, 17 adrenergic antagonist, 22, 23
37 | N=C(N)NNC(=O)Cc1c[nH]c2ccc(O)cc12 [Compound 38, 5-Hydroxyindole-3-acetamidoguanidine] | 5
38 | 17-[2-6-(N-1-Aminophthalazino-1-amidopropionyl)-2,5,7,8-tetramethylchroman-2-carbonyl]-17-cyproterone ester [Compound 140] | 26 (ESP Topical to treat male pattern
39 | N=C(N)c1ccc(C(=O)NC(=O)Cc2c(Cl)cccc2Cl)cc1 [Compound 99, 4-(Amidino)-N-(2,6-dichlorophenylacetyl)-benzamide] | adrenergic antagonist
40 | Bis(3,17-PGE2carbonyl)-estradiole ester [Compound 158] | 27 (Estrogenic antagonist (breast cancer treatment))
41 | CC(C)c1cccc(C(C)C)c1C=NCC(=N)N [Compound 163, 2,6-Diisopropylbenzylideneaminomethylamidine] | 14, 17, adrenergic antagonist, 22, 23
42 | N=C(N)c1ccc(OCCCCCOc2ccc(C(=N)N)cc2)cc1 [Compound 192, 4,4′-[Pentanediylbis(oxy)]bis-benzenecarboximidamide, reference compound] | 1, 2, 8–10, 15, 29 Adrenergic antagonist

assay: Reversal of guanabenz-induced anesthesia and hypothermia by antagonists; type: in vivo, rat; conditions: guanabenz-treated rats (4 mg I.P.); Yohimbine 10 mg I.P.
Method: The effect can also be partially reversed, or reversed in stages, if desired, by administering several smaller aliquots of the antagonist.
Room temperature was 21.5° C. […] The control rats, injected only with the carrier dextrose solution, maintained a relatively constant temperature during the entire test period under identical conditions of the test.

Row | Compound | effect on guanabenz-induced anesthesia | effect on guanabenz-induced hypothermia (body temperature)
43 | COC(=O)[C@@H]1[C@H]2C[C@H]3c4[nH]c5ccccc5c4CCN3C[C@@H]2CC[C@@H]1O [Yohimbine] | brought out of anesthesia | hypothermia was simultaneously reversed

same assay, conditions: rat, in vivo

Row | Compound | antagonism of both the hypothermic and anesthetic effects of guanidino compounds | antagonism of the hypothermic effect substantially without reducing the anesthetized condition
44 | COC(=O)[C@@H]1[C@H]2C[C@H]3c4[nH]c5ccccc5c4CCN3C[C@@H]2CC[C@@H]1O [Yohimbine] | reverse both the hypothermic and anesthetic effects | 
45 | Cn1c(=O)c2c(ncn2CC(=O)NC(=O)c2ccc(C(=N)N)cc2)n(C)c1=O [Compound 97, 4-(Amidino)-N-(theophylline-7-acetyl)-benzamide] | reverse both the hypothermic and anesthetic effects | 
46 | c1ccc(CC2=NCCN2)cc1 [tolazoline] |  | effect-specific alpha2-antagonists
47 | Cn1c(=O)c2c(ncn2CC(=O)NCc2nc3ccccc3[nH]2)n(C)c1=O [Compound 96, 2-(Theophylline-7-acetamido)-2-methylbenzimidazole] | reverse both the hypothermic and anesthetic effects | 
48 | C=CCN1CC[C@]23c4c5ccc(O)c4O[C@H]2C(=O)CC[C@@]3(O)[C@H]1C5 [Naloxone] | not found to be a useful antagonist | 

same assay, conditions: six anesthetized rats also injected with aminophylline, then tolazoline

Row | Compound | reversal of anesthesia-hypothermia induced by guanabenz | time until anesthesia-hypothermia reversed and body temperature normal
49 | c1ccc(CC2=NCCN2)cc1 [tolazoline] | completely reversed | ≤ 25 min
